Patent US20230102192A1, “THERAPIES FOR THE TREATMENT OF DISEASES AND DISORDERS ASSOCIATED WITH ABNORMAL EXPRESSION OF A NEURAL-ASSOCIATED GENE” (The Regents of the University of California, priority 2020, published 2023)
“Also recorded” adds a separate entry of the source.

Key:
Assay type in all cases: cell-based, human
[1] = test system: MECP2-mosaic (CTR/KO) neurospheres; assay: Nuclei size in neurospheres; details: vs CTR/KO untreated
[2] = test system: MECP2-KO cortical organoids; assay: Nuclei size in cortical organoids; details: vs KO untreated
[3] = test system: MECP2-mosaic (CTR/KO) neurospheres; assay: MEA analysis of neurospheres; details: 1 μM, after 5 weeks of treatment, vs CTR/KO untreated
Method: (§1) Multi-electrode array (MEA) analysis. MEA analyses of neurons and cortical organoids were performed as described in Nageshappa et al. (Mol. Psychiatry 21:178-188 (2016)). Briefly, 3D neurosphere cultures of NPC derivation were plated on dual-chamber MEA; spontaneous spike activity was evaluated with the MED64 System (Panasonic). Glutamatergic (AP5, NBQX), GABAergic (Gabazine), and gap channel (Mefloquine) antagonism were used to check neuronal activity. After measurement, neurons were immunostained to check morphology and density. Recorded spikes were analyzed with the software Neuroexplorer (Nex Technologies, Madison, Ala., USA). For cortical organoids, 1-month organoids were plated on MEA plates and recordings were collected with a Maestro MEA system and AxIS Software Spontaneous Neural Configuration (Axion Biosystems, Atlanta, Ga., USA) using a customized script. The plate rested in the machine for three minutes followed by four minutes of recording. Axion Biosystems' Neural Metrics Tool classified electrodes with at least 5 spikes/min as active. Bursts were identified using an inter-spike interval (ISI) threshold requiring a 5-spike minimum and 100 ms maximum ISI. […] The synchrony index was calculated using a 20 ms cross-correlogram synchrony window was used to determine the synchrony index. […]

[4] = test system: MECP2-KO neurons; assay: Multi-electrode array (MEA) of neurons
Method: Pharmacologic treatment. One-month old cortical organoids were treated for 1 mo with either Nefiracetam (10 μM) or PHA 543613 (10 μM) during media changes.
as §1, with “active.” for “active. Bursts were identified using an inter-spike interval (ISI) threshold requiring a 5-spike minimum and 100 ms maximum ISI.”

[5] = test system: MECP2-KO cortical organoids; assay: Cortical organoid diameter; details: 1 μM for one month, 2-month old organoids
Method: Generation of cortical organoids. Cortical organoid generation was performed according to Trujillo et al. (Cell Stem Cell 25:558-569.e7 (2019)). iPSCs cultured 5-7 d were dissociated with 1:1 Accutase (Life Technologies) in PBS, and 4×10^6 cells/well in mTeSR1 supplemented with 10 μM SB (Stemgent), 1 μM Dorso (R&D Systems), and 5 μM Y-27632 (EMD-Millipore, Burlington, Mass., USA) were plated on rotating suspension. […]
Nefiracetam and PHA 543613 rescue network activity in MECP2-KO cortical organoids. The therapeutic efficacy of Nefiracetam and PHA 543613 was evaluated with cortical organoids, a complex, three-dimensional human neurodevelopmental model that closely recapitulates aspects of human fetal neurodevelopment. […]

| Structure (SMILES) | nuclei size in neurospheres [1] | nuclei size in cortical organoids [2] | MEA overall spike count / spike frequency [3] | MEA spike frequency / network spiking activity [4] | diameter of MECP2-KO organoids [5] |
| --- | --- | --- | --- | --- | --- |
| Cc1cccc(C)c1NC(=O)CN1CCCC1=O [Nefiracetam, nefiracetam] | did not rescue | did not rescue | increased | increases network spiking activity; also recorded: restore | increased |
| O=C(N[C@H]1CN2CCC1CC2)c1cc2ccoc2cn1 [PHA 543613, N-[(3R)-1-azabicyclo[2.2.2]oct-3-yl]furo[2,3-c]pyridine-5-carboxamide] | did not rescue | did not rescue | increased | increases network spiking activity; also recorded: restore | increased |
